This note sets out measurements from patent US10144709B2, “Piperidine compounds, pharmaceutical composition comprising the same and its use” (SK BIOPHARMACEUTICALS CO., LTD., priority 2008, dated 2018).

Structures can show the parent of a compound that is named as a salt.

For this experiment, the system named is ICR CD strain male mice. In words: Gastric emptying enhancing activity (phenol red meal). The experiment is classed as in vivo. The following applies: Mus musculus, ip, 0.25 h, 3.0 mg/kg i.p., gastric emptying at 15 min after test meal, increase vs vehicle. As for the experimental part: ICR CD strain male mice (body weight, 25˜30 g; 8 mice per one group) were fasted for 24 h but allowed free access to water until 3 hours before the test.
Compounds to be tested for promoting GI motility were injected intraperitoneally or given orally at 30 min or 60 min prior to phenol red meal administration. Fifteen (15) min after administration of a test meal (0.5% Phenol red in 1.5% methylcellulose solution), mice were sacrificed and the stomach (pylorus˜cardia) was removed and collected to vial. The stomach was homogenized with its contents in 0.1N NaOH and the mixture was centrifuged (700*g) for 20 min. 2.5 mL of the supernatant was added to 0.25 mL of trichloroacetic acid solution (20% w/v) to precipitate proteins. After centrifuging (2600*g) for 20 min, 0.5 mL of the supernatant was added to 0.25 mL of 1N NaOH. The mixture was homogenized and its absorbance (Abs) was read at 560 nm.
In each experiment, one group was sacrificed just after the administration of the test meal and was considered as a standard (0% emptying). The gastric emptying (GE) at the 15 min period was calculated according to the following formula. GE (%)=(1−Abstest/Absstandard)×100 Increase (%)=(GE %test−GE %vehicle)/GE %vehicle*100

For the compound `COc1cc(N)c(Cl)cc1C(=O)NCC1CCN(CC(O)c2ccc(F)cc2)CC1` (centres unmarked) [Example 2, 4-amino-5-chloro-N-[[1-[2-(4-fluorophenyl)-2-hydroxyethyl]piperidin-4-yl]methyl]-2-methoxybenzamide; hydrochloride], the change in vivo at 3 mg/kg came out at 42.6%.
`COc1cc(N)c(Cl)cc1C(=O)NCC1CCN(CC(O)c2ccc(C)cc2)CC1` (centres unmarked) [Example 3, 4-amino-5-chloro-N-[[1-[2-hydroxy-2-(4-methylphenyl)ethyl]piperidin-4-yl]methyl]-2-methoxybenzamide; hydrochloride]: the change in vivo at 3 mg/kg turned out to be 71.1%.
Turning to `COc1ccc(C(O)CN2CCC(CNC(=O)c3cc(Cl)c(N)cc3OC)CC2)cc1` (centres unmarked) [Example 4, 4-amino-5-chloro-N-[[1-[2-hydroxy-2-(4-methoxyphenyl)ethyl]piperidin-4-yl]methyl]-2-methoxybenzamide; hydrochloride], the change in vivo at 3 mg/kg was 74.1%.
The value for `COc1cc(N)c(Cl)cc1C(=O)NCC1CCN(CC(O)c2ccc(C#N)cc2)CC1` (centres unmarked) [Example 5, 4-amino-5-chloro-N-[[1-[2-(4-cyanophenyl)-2-hydroxyethyl]piperidin-4-yl]methyl]-2-methoxybenzamide; hydrochloride] was 76.1%; that for `COc1cc(N)c(Cl)cc1C(=O)NCC1CCN(CC(O)c2ccccc2OC)CC1` (centres unmarked) [Example 8, 4-amino-5-chloro-N-[[1-[2-hydroxy-2-(2-methoxyphenyl)ethyl]piperidin-4-yl]methyl]-2-methoxybenzamide; hydrochloride] was 51.6%.
The value for `COc1cccc(C(O)CN2CCC(CNC(=O)c3cc(Cl)c(N)cc3OC)CC2)c1` (centres unmarked) [Example 9, 4-amino-5-chloro-N-[[1-[2-hydroxy-2-(3-methoxyphenyl)ethyl]piperidin-4-yl]methyl]-2-methoxybenzamide; hydrochloride] was 55.8%; that for `COc1cc(N)c(Cl)cc1C(=O)NCC1CCN(CC(O)c2ccccc2Cl)CC1` (centres unmarked) [Example 13, 4-amino-5-chloro-N-[[1-[2-(2-chlorophenyl)-2-hydroxyethyl]piperidin-4-yl]methyl]-2-methoxybenzamide; hydrochloride] was 14%; that for `COc1ccc(OC)c(C(O)CN2CCC(CNC(=O)c3cc(Cl)c(N)cc3OC)CC2)c1` (centres unmarked) [Example 15, 4-amino-5-chloro-N-[[1-[2-(2,5-dimethoxyphenyl)-2-hydroxyethyl]piperidin-4-yl]methyl]-2-methoxybenzamide; hydrochloride] was 78.7%.
`COc1cc(N)c(Cl)cc1C(=O)NCC1CCN(CC(O)c2ccc(OC(F)F)cc2)CC1` (centres unmarked) [Example 16, 4-amino-5-chloro-N-[[1-[2-[4-(difluoromethoxy)phenyl]-2-hydroxyethyl]piperidin-4-yl]methyl]-2-methoxybenzamide; hydrochloride]: the change in vivo at 3 mg/kg was found to be 53.6%.
With `COc1cc(N)c(Cl)cc1C(=O)NCC1CCN(CC(O)c2ccc(F)c(F)c2)CC1` (centres unmarked) [Example 17, 4-amino-5-chloro-N-[[1-[2-(3,4-difluorophenyl)-2-hydroxyethyl]piperidin-4-yl]methyl]-2-methoxybenzamide; hydrochloride], the change in vivo at 3 mg/kg came out at 22.1%.
The value for `COc1cc(N)c(Cl)cc1C(=O)NCC1CCN(CC(NC(=O)O)c2ccc(C)cc2)CC1` (centres unmarked) [Example 24, [2-[4-[[(4-amino-5-chloro-2-methoxybenzoyl)amino]methyl]piperidin-1-yl]-1-(4-methylphenyl)ethyl]carbamate; hydrochloride] was 71.1%; that for `COc1cc(N)c(Cl)cc1C(=O)NCC1CCN(CC(NC(=O)O)c2ccccc2Cl)CC1` (centres unmarked) [Example 29, [2-[4-[[(4-amino-5-chloro-2-methoxybenzoyl)amino]methyl]piperidin-1-yl]-1-(2-chlorophenyl)ethyl]carbamate; hydrochloride] was 61.3%; that for `COc1cc(N)c(Cl)cc1C(=O)NCC1CCN(CC(NC(=O)O)c2ccc(OC(F)F)cc2)CC1` (centres unmarked) [Example 32, [2-[4-[[(4-amino-5-chloro-2-methoxybenzoyl)amino]methyl]piperidin-1-yl]-1-[4-(difluoromethoxy)phenyl]ethyl]carbamate; hydrochloride] was 40%.
Take `COc1cc(N)c(Cl)cc1C(=O)NCC1CCN(CCC(O)c2ccccc2)CC1` (centres unmarked) [Example 36, 4-amino-5-chloro-N-[[1-(3-hydroxy-3-phenylpropyl)piperidin-4-yl]methyl]-2-methoxybenzamide; hydrochloride]: the change in vivo at 3 mg/kg stood at 55.2%.
In the case of `COc1cc(N)c(Cl)cc1C(=O)NCC1CCN(CCC(O)c2ccc(F)cc2)CC1` (centres unmarked) [Example 37, 4-amino-5-chloro-N-[[1-[3-(4-fluorophenyl)-3-hydroxypropyl]piperidin-4-yl]methyl]-2-methoxybenzamide; hydrochloride], the change in vivo at 3 mg/kg was 70.7%.
On to `COc1cc(N)c(Cl)cc1C(=O)NCC1CCN(CCC(O)c2ccc(Cl)cc2)CC1` (centres unmarked) [Example 38, 4-amino-5-chloro-N-[[1-[3-(4-chlorophenyl)-3-hydroxypropyl]piperidin-4-yl]methyl]-2-methoxybenzamide; hydrochloride], for which the change in vivo at 3 mg/kg was found to be 49.1%.
The value for `COc1cc(N)c(Cl)cc1C(=O)NCC1CCN(CCC(O)c2ccc(C)cc2)CC1` (centres unmarked) [Example 39, 4-amino-5-chloro-N-[[1-[3-hydroxy-3-(4-methylphenyl)propyl]piperidin-4-yl]methyl]-2-methoxybenzamide; hydrochloride] was 40%.
As for `COc1ccc(C(O)CCN2CCC(CNC(=O)c3cc(Cl)c(N)cc3OC)CC2)cc1` (centres unmarked) [Example 40, 4-amino-5-chloro-N-[[1-[3-hydroxy-3-(4-methoxyphenyl)propyl]piperidin-4-yl]methyl]-2-methoxybenzamide; hydrochloride], the change in vivo at 3 mg/kg is 51.6%.
Under `COc1cc(N)c(Cl)cc1C(=O)NCC1CCN(CCC(O)c2ccccc2Cl)CC1` (centres unmarked) [Example 41, 4-amino-5-chloro-N-[[1-[3-(2-chlorophenyl)-3-hydroxypropyl]piperidin-4-yl]methyl]-2-methoxybenzamide; hydrochloride] stands 24.3%.
Take `COc1cc(N)c(Cl)cc1C(=O)NCC1CCN(CCC(O)c2cccc(Cl)c2)CC1` (centres unmarked) [Example 42, 4-amino-5-chloro-N-[[1-[3-(3-chlorophenyl)-3-hydroxypropyl]piperidin-4-yl]methyl]-2-methoxybenzamide; hydrochloride]: the change in vivo at 3 mg/kg amounted to 42.7%.
`COc1cc(N)c(Cl)cc1C(=O)NCC1CCN(CCC(O)c2ccccc2F)CC1` (centres unmarked) [Example 43, 4-amino-5-chloro-N-[[1-[3-(2-fluorophenyl)-3-hydroxypropyl]piperidin-4-yl]methyl]-2-methoxybenzamide; hydrochloride]: the change in vivo at 3 mg/kg amounted to 46.1%.
Under `COc1cc(N)c(Cl)cc1C(=O)NCC1CCN(CCC(O)c2cccc(Cl)c2Cl)CC1` (centres unmarked) [Example 45, 4-amino-5-chloro-N-[[1-[3-(2,3-dichlorophenyl)-3-hydroxypropyl]piperidin-4-yl]methyl]-2-methoxybenzamide; hydrochloride] stands 51.4%; under `COc1cc(N)c(Cl)cc1C(=O)NCC1CCN(CCC(O)c2ccc(Cl)cc2Cl)CC1` (centres unmarked) [Example 46, 4-amino-5-chloro-N-[[1-[3-(2,4-dichlorophenyl)-3-hydroxypropyl]piperidin-4-yl]methyl]-2-methoxybenzamide; hydrochloride], 45.9%.
Consider `COc1cc(N)c(Cl)cc1C(=O)NCC1CCN(CCC(O)c2ccc(Cl)c(Cl)c2)CC1` (centres unmarked) [Example 47, 4-amino-5-chloro-N-[[1-[3-(3,4-dichlorophenyl)-3-hydroxypropyl]piperidin-4-yl]methyl]-2-methoxybenzamide; hydrochloride], for which the change in vivo at 3 mg/kg was determined as 25.9%.
Consider `COc1cc(N)c(Cl)cc1C(=O)NCC1CCN(CCC(O)c2ccc(C(C)C)cc2)CC1` (centres unmarked) [Example 48, 4-amino-5-chloro-N-[[1-[3-(4-isopropylphenyl)-3-hydroxypropyl]piperidin-4-yl]methyl]-2-methoxybenzamide; hydrochloride], for which the change in vivo at 3 mg/kg came out at 3.5%.
Take `COc1cccc(C(O)CCN2CCC(CNC(=O)c3cc(Cl)c(N)cc3OC)CC2)c1` (centres unmarked) [Example 49, 4-amino-5-chloro-N-[[1-[3-(3-methoxyphenyl)-3-hydroxypropyl]piperidin-4-yl]methyl]-2-methoxybenzamide; hydrochloride]: the change in vivo at 3 mg/kg amounted to 17.8%.
For `COc1cc(N)c(Cl)cc1C(=O)NCC1CCN(CCC(O)c2cccs2)CC1` (centres unmarked) [Example 50, 4-amino-5-chloro-N-[[1-(3-hydroxy-3-thiophen-2-ylpropyl)piperidin-4-yl]methyl]-2-methoxybenzamide; hydrochloride], the change in vivo at 3 mg/kg was 3.9%.
The value for `COc1cc(N)c(Cl)cc1C(=O)NCC1CCN(CCC(O)Cc2ccc(F)cc2)CC1` (centres unmarked) [Example 51, 4-amino-5-chloro-N-[[1-[4-(4-fluorophenyl)-3-hydroxybutyl]piperidin-4-yl]methyl]-2-methoxybenzamide; hydrochloride] was 122%.
In the case of `COc1cc(N)c(Cl)cc1C(=O)NCC1CCN(CCC(O)CCc2ccc(F)cc2)CC1` (centres unmarked) [Example 52, 4-amino-5-chloro-N-[[1-[5-(4-fluorophenyl)-3-hydroxypentyl]piperidin-4-yl]methyl]-2-methoxybenzamide; hydrochloride], the change in vivo at 3 mg/kg worked out at 131%.
